Experimental data published in ChEMBL document CHEMBL1151721, “Fagraldehyde, a secoiridoid isolated from Fagraea fragrans” (J Nat Prod, 2008).
≈ marks a conversion by molar mass, not a printed value.

Test system: Plasmodium falciparum
Assay: Antiplasmodial activity against chloroquine-resistant Plasmodium falciparum W2 by FACS
Assay type: functional, organism-based

| SMILES | IC50 [µg/mL] |
| --- | --- |
| CC1OC(=O)C(C=O)=C2C=COC=C21 (centres undefined) [FAGRALDEHYDE] | 22.4 (≈ 117 µM) |
| C=C[C@H]1[C@H](O[C@@H]2O[C@H](CO)[C@@H](O)[C@H](O)[C@H]2O)OC=C2C(=O)OCC[C@]21O [SWERTIAMARIN] | > 50 |
| C=C[C@H]1[C@H](O[C@@H]2O[C@H](CO)[C@@H](O)[C@H](O)[C@H]2O)OC=C2C(=O)OCC[C@H]21 [SWEROSIDE] | > 50 |
| C=C[C@@H]1C2=CCOC(=O)C2=CO[C@H]1O[C@@H]1O[C@H](CO)[C@@H](O)[C@H](O)[C@H]1O [GENTIOPICROSIDE] | > 50 |
